In the experiment the test system is Male WistarF/Han (WF) rats. In words: Social interaction (SI) test of anxiety, i.c.v. P32/98 and NPY (Example 3). Particulars: i.c.v. 5 pmol-500 nmol. The format is in vivo, rat. The method, then: Animals. […]
Animals were randomly divided into two sets of four experimental groups (n=5-6/group), which completed different consecutive SI test of anxiety. […] The time spent in active social interaction (SI-time), 1 h and 12 h food-intake were measured. […]
Social interaction (SI) test. […] Behavior was monitored using a video camera placed above the field inside the testing/isolation box. The SI behavior of both rats was recorded on-line from a monitor placed outside on top of the box. The following parameters were scored by an observer (HPN) unaware of the substrain of rats: duration of time spent in sniffing, following, crawling under and over other rats, but not passive body contact (resting, sleeping). […]
Statistical analysis. Data from repeated observations (food intake) were analyzed by two-way analyses of variance for repeated measures (ANOVA) (factors: “substrain” and “food intake” as repeated measure). […]

The structures appear in SMILES notation.

Take `CC[C@H](C)[C@H](N)C(=O)N1CCSC1` [P32/98]: the “time spent in active social interaction (SI-time), P32/98 alone” value is on record as ““bell-shaped” dose-dependent anxiolytic-like effects”.

These data come from patent US8168199B2, “Dipeptidyl peptidase IV inhibitors for the treatment of schizophrenia and depression” (priority 2000, dated 2012).
